pIC50: −log10 of the molar value.
Assays:
[1] = Inhibition of Hedgehog-signalling dependent purmorphamine induced osteoblast differentiation in mouse C3H 10T1/2 cells assessed as residual activity by measuring ALP expression at 10 uM incubated for 96 hrs by CDP-Star luminogenic substrate based assay relative to control; assay type: functional
[2] = Inhibition of Hedgehog-signalling dependent purmorphamine induced osteoblast differentiation in mouse C3H 10T1/2 cells assessed as reduction in ALP expression incubated for 96 hrs by CDP-Star luminogenic substrate based assay; assay type: functional, cell-based; settings: C3H 10T1/2, 96 h
[3] = biological target: T1, Aryl hydrocarbon receptor (Mus musculus, UniProt P30561); assay: Activation of AhR in purmorphamine-treated mouse C3H 10T1/2 cells assessed as translocation of AhR from cytoplasm to nucleus at 1 nM incubated for 24 hrs by immunostaining based analysis; assay type: cell-based; settings: c3h 10t1/2, 24 h, 0.001 µM
T1 sequence (P30561 whole entry): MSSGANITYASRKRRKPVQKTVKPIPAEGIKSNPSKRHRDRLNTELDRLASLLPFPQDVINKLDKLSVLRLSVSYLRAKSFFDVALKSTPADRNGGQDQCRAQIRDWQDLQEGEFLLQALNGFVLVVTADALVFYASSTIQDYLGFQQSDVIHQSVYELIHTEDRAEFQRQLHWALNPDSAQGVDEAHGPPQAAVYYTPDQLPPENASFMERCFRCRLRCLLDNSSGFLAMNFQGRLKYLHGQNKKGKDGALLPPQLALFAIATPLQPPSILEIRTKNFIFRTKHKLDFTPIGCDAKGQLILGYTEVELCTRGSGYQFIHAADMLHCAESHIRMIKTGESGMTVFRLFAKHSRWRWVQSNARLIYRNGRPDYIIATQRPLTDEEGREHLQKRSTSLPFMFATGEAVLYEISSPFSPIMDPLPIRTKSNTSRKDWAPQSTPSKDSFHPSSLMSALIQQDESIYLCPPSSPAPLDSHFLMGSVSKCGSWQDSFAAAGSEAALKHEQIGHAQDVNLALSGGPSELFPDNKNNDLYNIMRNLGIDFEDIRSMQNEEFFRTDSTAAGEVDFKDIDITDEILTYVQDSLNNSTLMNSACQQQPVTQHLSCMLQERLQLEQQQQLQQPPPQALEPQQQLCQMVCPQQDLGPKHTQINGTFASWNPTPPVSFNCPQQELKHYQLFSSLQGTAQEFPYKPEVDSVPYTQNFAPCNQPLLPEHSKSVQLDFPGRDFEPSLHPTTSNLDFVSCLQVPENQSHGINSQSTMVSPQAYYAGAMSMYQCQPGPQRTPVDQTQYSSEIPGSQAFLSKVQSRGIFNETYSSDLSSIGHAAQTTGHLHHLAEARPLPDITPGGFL

[4] = biological target: T1, Aryl hydrocarbon receptor; assay: Activation of AhR in purmorphamine-treated mouse C3H 10T1/2 cells assessed as upregulation of Cyp1B1 mRNA levels measured after 96 hrs by RT-qPCR analysis; assay type: cell-based; settings: c3h 10t1/2, 96 h, DDE = dose-dependent effect, dose 0.001-1 nM

pIC50 [2]	Compound	Activity [1] [%]	further results
9.44	O=C1c2cc(Br)c(Cl)c(Br)c2C[C@H]2c3ccccc3CCN12	27.9	–
–	COc1ccc2c(c1)C[C@H]1c3ccccc3CCN1C2=O	114	–
–	O=C1c2cc(Br)c(Cl)cc2C[C@H]2c3ccccc3CCN12	–	Activity [3]: Active; Activity [4]: Dde
8.96	O=C1c2ccc(Cl)c(Cl)c2C[C@H]2c3ccccc3CCN12	36	–
–	COc1cc2c(cc1OC)[C@@H]1Cc3ccccc3C(=O)N1CC2	96.5	–
–	O=C1c2cccc(Cl)c2C[C@H]2c3ccccc3CCN12	53	–
11.40	O=C1c2cc(I)c(Cl)cc2C[C@H]2c3ccccc3CCN12	30.7	–
–	O=C1c2ccc(I)cc2C[C@H]2c3ccccc3CCN12	57.8	–
10.42	COc1cc2c(cc1Cl)C[C@H]1c3ccccc3CCN1C2=O	13.4	–
–	COc1cc2c(cc1OC)C(=O)N1CCc3cc(OC)c(OC)cc3[C@@H]1C2	55.2	–
–	O=C1c2ccc(F)cc2C[C@H]2c3ccccc3CCN12	61.2	–
–	O=C1c2cc(Cl)cc(Cl)c2C[C@H]2c3ccccc3CCN12	53.2	–
8.92	O=C1c2ccc(Cl)cc2C[C@H]2c3ccccc3CCN12	30.4	–
–	O=C1c2ccccc2C[C@H]2c3ccccc3CCN12	100	–
–	O=C1c2ccccc2C[C@H]2c3ccc(Cl)cc3CCN12	87	–
9.15	O=C1c2ccc(C(F)(F)F)cc2C[C@H]2c3ccccc3CCN12	33.1	–
6.07	O=C1c2ccc(Cl)cc2C[C@@H]2c3ccccc3CCN12	27.4	–
–	O=C1c2ccccc2C[C@H]2c3ccccc3CN12	29.2	–
–	COc1cc2c(cc1F)CCN1C(=O)c3ccccc3C[C@@H]21	127	–
–	O=C1c2ccccc2C[C@H]2c3ccccc3CCCN12	134	–
–	Cc1ccc2c(c1)C[C@H]1c3ccccc3CCN1C2=O	93.2	–
–	O=C1c2ccc(Cl)c(F)c2C[C@H]2c3ccccc3CCN12	67.2	–
–	CC(C)c1ccc2c(c1)C[C@H]1c3ccccc3CCN1C2=O	90.1	–
8.38	O=C1c2ccc(Br)cc2C[C@H]2c3ccccc3CCN12	44.2	–

From ChEMBL document CHEMBL5150067 (J Med Chem, 2022)
